Read-outs that look alike come from different tables or passages of the source.
Legend:
[1] = target: Cathepsin B (Homo sapiens, UniProt P07858); experiment: Cathepsin B activity assay; format: biochemical; settings: 36 μM z-RR-AMC, 3.6 nM enzyme, 30 min pre-incubation at 25° C., 60 min at 37° C.; sigmoidal fit; AF: Autofluorescent; read-out: cathepB (inhibition of cysteine protease activity)
Method: Cathepsin B was diluted in Cathepsin B buffer (20 mM Tris HCl pH 6.8; 1 mM EDTA; 1 mM DTT). Compounds stocks (100 mM) were stored at −20° C. in DMSO. […] Reactions were performed as duplicates in Black LJL 96 well plates (HE microplates; Molecular Devices; 20 μl final reaction volume). The substrate concentration for cathepsin B specificity assay was 36 μM (z-RR-AMC; Calbiochem). The concentration of the enzyme (Cathepsin B) in specificity assays was 3.6 nM. The concentrations were determined in order to perform specificity assays under initial velocities at fixed substrate concentration. Compounds were pre-incubated with enzymes for 30 minutes at 25° C. Reactions were initiated by addition of substrate to the plates containing the enzymes (+/− compounds) diluted in assay buffer. Reactions were incubated for 60 minutes at 37° C. Reactions were stopped by adding acetic acid (100 mM final). Readings were performed on a Pherastar Fluorescent Reader (BMG). δ Emission 380 nm; 6 Excitation=460 nm. Data (mean values+/− standard deviation) were analyzed as % of control (no compound) and plotted as percentage versus the Log of the compound concentration using GraphPad (Prism). Data were fitted to a sigmoidal model (variable slope).

[2] = tested on: PC-3 prostate cancer cells; experiment: PC3 cell viability and proliferation assay (MTS); format: cell-based; settings: Homo sapiens, PC-3, 72 h, read-out: PC3 D3 GI50
[3] = target: T1, Uch-L3 (Homo sapiens, UniProt P15374); experiment: UCH-L3 activity assay; format: biochemical; settings: 400 nM Ub-AMC, 13 pM enzyme, 30 min pre-incubation at 25° C., 60 min at 37° C.; sigmoidal fit; AF: Autofluorescent; read-out: Uch-L3 (inhibition of cysteine protease activity)
T1 sequence (P15374 1-230): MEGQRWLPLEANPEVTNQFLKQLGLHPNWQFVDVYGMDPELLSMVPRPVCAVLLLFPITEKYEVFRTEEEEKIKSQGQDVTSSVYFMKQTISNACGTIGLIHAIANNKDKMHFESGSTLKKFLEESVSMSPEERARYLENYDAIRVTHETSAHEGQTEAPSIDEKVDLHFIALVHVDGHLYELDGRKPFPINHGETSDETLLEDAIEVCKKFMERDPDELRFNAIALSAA
Method: Bovine Serum Albumin 0.05 mg·ml^−1 pH7.6). Compounds stocks (100 mM) were stored at −20° C. in DMSO. […] Reactions were performed as duplicates in Black LJL 96 well plates (HE microplates; Molecular Devices; 20 μl final reaction volume). The substrate concentration for Uch-L3 was 400 nM Ub-AMC (Boston Biochem). The concentration of the enzyme (Uch-L3) in specificity assays was 13 pM. The concentrations were determined in order to perform specificity assays under initial velocities at fixed substrate concentration. Compounds were pre-incubated with enzymes for 30 minutes at 25° C. Reactions were initiated by addition of substrate to the plates containing the enzymes (+/−compounds) diluted in assay buffer. Reactions were incubated for 60 minutes at 37° C. Reactions were stopped by adding acetic acid (100 mM final). Readings were performed on a Pherastar Fluorescent Reader (BMG). δ Emission 380 nm; δ Excitation=460 nm. Data (mean values+/− standard deviation) were analyzed as % of control (no compound) and plotted as percentage versus the Log of the compound concentration using GraphPad (Prism). Data were fitted to a sigmoidal model (variable slope).

[4] = target: T2, USP8 (Homo sapiens, UniProt P40818); experiment: USP8 activity assay; format: biochemical; settings: 400 nM Ub-AMC, pH8.8, 30 min pre-incubation at 25° C., 60 min at 37° C.; sigmoidal fit; AF: Autofluorescent; read-out: USP 8 (inhibition of cysteine protease activity)
T2 sequence (P40818 1-1118): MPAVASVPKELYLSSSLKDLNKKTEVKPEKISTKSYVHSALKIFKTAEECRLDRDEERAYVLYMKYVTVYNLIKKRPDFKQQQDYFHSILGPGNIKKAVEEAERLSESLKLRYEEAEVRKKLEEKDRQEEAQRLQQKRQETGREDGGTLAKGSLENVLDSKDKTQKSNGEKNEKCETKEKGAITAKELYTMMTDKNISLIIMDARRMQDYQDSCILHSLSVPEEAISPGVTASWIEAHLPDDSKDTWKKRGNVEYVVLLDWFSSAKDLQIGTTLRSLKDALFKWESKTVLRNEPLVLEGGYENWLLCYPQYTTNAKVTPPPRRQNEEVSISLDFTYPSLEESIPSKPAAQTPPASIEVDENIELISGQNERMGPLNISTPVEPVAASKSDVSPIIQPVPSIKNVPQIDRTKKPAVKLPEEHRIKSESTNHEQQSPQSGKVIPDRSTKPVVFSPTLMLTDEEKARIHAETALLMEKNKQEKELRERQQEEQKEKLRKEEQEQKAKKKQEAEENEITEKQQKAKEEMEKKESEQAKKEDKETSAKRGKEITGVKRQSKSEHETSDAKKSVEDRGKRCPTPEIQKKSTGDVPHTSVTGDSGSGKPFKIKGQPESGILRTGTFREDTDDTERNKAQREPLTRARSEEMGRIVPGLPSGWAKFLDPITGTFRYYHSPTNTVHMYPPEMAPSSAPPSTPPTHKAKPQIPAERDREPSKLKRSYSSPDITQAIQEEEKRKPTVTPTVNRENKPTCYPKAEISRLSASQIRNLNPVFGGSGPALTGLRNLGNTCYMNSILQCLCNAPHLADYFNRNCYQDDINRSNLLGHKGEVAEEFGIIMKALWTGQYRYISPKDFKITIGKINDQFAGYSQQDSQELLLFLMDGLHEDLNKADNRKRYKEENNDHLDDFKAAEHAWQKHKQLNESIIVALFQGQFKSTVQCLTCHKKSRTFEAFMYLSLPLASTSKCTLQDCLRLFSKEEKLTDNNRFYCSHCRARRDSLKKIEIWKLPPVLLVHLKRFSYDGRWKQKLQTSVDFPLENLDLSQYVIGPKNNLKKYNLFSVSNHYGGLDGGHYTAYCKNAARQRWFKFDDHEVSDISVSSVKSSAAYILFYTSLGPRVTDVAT

[5] = PC3 cells, 72 hours incubation, MTS, mean of 3 independent experiments

Structure (SMILES)	IC50 [1] [µM]	GI50 [2, 5] [nM]	IC50 [3] [nM]	GI50 [2] [nM]	IC50 [4] [nM]
CCO/C(O)=C(\C#N)c1nc2c(nc1C#N)C(=O)c1ccccc1-2 [Example 22, 3-(1-cyano-2-ethoxy-2-hydroxy-vinyl)-9-oxo-9H-indeno[1,2-b]pyrazine-2-carbonitrile]	> 100	> 10000	22000	–	–
C=CCON=C1c2ccccc2-c2nc(C#N)c(C#N)nc21 (mixture of isomers) [Example 13b, 9-(Allyloxyimino)-9H-indeno[1,2-b]pyrazine-2,3-dicarbonitrile]	> 100	–	10000	540	560
N#Cc1nc2c(nc1C#N)C1(OCCO1)c1ccccc1-2 [Example 10]	> 100	4400	20000	–	13000
CON=C1c2ccccc2-c2nc(C#N)c(C#N)nc21 [Example 13a, 9-(methoxyimino)-9H-indeno[1,2-b]pyrazine-2,3-dicarbonitrile]	> 100	–	2200	430	980
CC(=O)O/N=C1\c2ccccc2-c2nc(C(N)=O)c(C#N)nc21 (single isomer, unassigned) [Example 35, 2-cyano-9-acetoxyimino-9H-indeno[1,2-b]pyrazine-3-carboxylic acid amide]	11.5	–	48	1280	27
Cc1cccc2c1Cc1nc(C#N)c(C#N)nc1-2 [Example 16c, 8-Methyl-9H-indeno[1,2-b]pyrazine-2,3-dicarbonitrile]	> 100	3370	> 100000	–	> 100000
N#Cc1nc2c(nc1C#N)-c1ccccc1C2=NOCc1ccccc1 (mixture of isomers) [Example 13C, 9-Benzyloxyimino-9H-indeno[1,2-b]pyrazine-2,3-dicarbonitrile]	> 100	700	> 100000	–	850
N#Cc1nc2c(nc1N1CCC(F)(F)CC1)-c1ccccc1C2=O [Example 8, 3-(4,4-difluoro-piperidin-1-yl)-9-oxo-9H-indeno[1,2-b]-pyrazine-2-carbonitrile]	> 100	> 10000	> 100000	–	> 100000
N#Cc1nc2c(nc1C#N)-c1ccc(O)cc1C2=O [Example 17j, 7-Hydroxy-9-oxo-9H-indeno[1,2-b]pyrazine-2,3-dicarbonitrile]	40	> 10000	8000	–	> 100000
N#Cc1nc2c(nc1C#N)-c1ccccc1C2=NOCCOc1ccccc1 [Example 27a, 9-(2-Phenoxy-ethoxyimino)-9H-indeno[1,2-b]pyrazine-2,3-dicarbonitrile]	> 100	–	10500	1000	2300
CCOC(=O)CNC(=O)CO/N=C1\c2ccccc2-c2nc(C(N)=O)c(C#N)nc21 [Example 40, [2-(3-carbamoyl-2-cyano-indeno[1,2-b]pyrazin-9-ylideneaminooxy)-acetylamino]-acetic acid ethyl ester]	–	–	245	–	155
N#Cc1nc2c(nc1C#N)-c1ccccc1C2=O [Example 1, 9-oxo-9H-indeno[1,2-b]pyrazine-2,3-dicarbonitrile]	12	610	760	–	290
CCOC(=O)CO/N=C1\c2ccccc2-c2nc(C(N)=O)c(C#N)nc21 [Example 37, (3-carbamoyl-2-cyano-indeno[1,2-b]pyrazin-9-ylideneaminooxy)-acetic acid ethyl ester]	–	–	393	–	200
N#Cc1nc2c(nc1C#N)-c1cc(Cl)c(Cl)cc1C2=O [Example 31, 6,7-dichloro-9-oxo-9H-indeno[1,2-b]pyrazine-2,3-dicarbonitrile]	–	–	104	2430	76
COc1ccc2c(c1)-c1nc(C#N)c(C#N)nc1C2=O [Example 17a, 6-Methoxy-9-oxo-9H-indeno[1,2-b]pyrazine-2,3-dicarbonitrile]	–	1400	7000	–	4000
C=CCON=C1c2ccc(Cl)cc2-c2nc(C#N)c(C#N)nc21 [Example 27c, 9-Allyloxyimino-6-chloro-9H-indeno[1,2-b]pyrazine-2,3-dicarbonitrile]	–	–	502	803	201
N#Cc1nc2c(nc1C(N)=O)-c1ccccc1/C2=N\O [Example 11, 2-cyano-9-[hydroxyimino]-9H-indeno[1,2-b]pyrazine-3-carboxylic acid amide]	–	1240	600	–	730
CCON=C1c2ccccc2-c2nc(C#N)c(C#N)nc21 (mixture of isomers) [Example 13d, 9-Ethoxyimino-9H-indeno[1,2-b]pyrazine-2,3-dicarbonitrile]	> 100	1540	1300	–	–
Cc1c(F)ccc2c1C(=O)c1nc(C#N)c(C#N)nc1-2 [Example 30, 7-Fluoro-8-methyl-9-oxo-9H-indeno[1,2-b]pyrazine-2,3-dicarbonitrile]	–	854	339	–	316
N#Cc1nc2c(nc1C(N)=O)-c1ccccc1C2=O [Example 36, 2-cyano-9-oxo-9H-indeno[1,2-b]pyrazine-3-carboxylic acid amide]	–	–	178	–	205
N#Cc1nc2c(nc1C(N)=O)-c1ccccc1/C2=N\OCC(=O)O [Example 38, (3-carbamoyl-2-cyano-indeno[1,2-b]pyrazin-9-ylideneaminooxy)-acetic acid]	–	–	758	–	272
N#Cc1nc2c(nc1C(N)=O)-c1ccccc1/C2=N\OCC(=O)NCC(=O)O [Example 41, [2-(3-carbamoyl-2-cyano-indeno[1,2-b]pyrazin-9-ylideneaminooxy)-acetylamino]-acetic acid]	–	–	328	–	118

Source: patent US8648076B2, “Cysteine protease inhibitors and their therapeutic applications” (Hybrigenics SA, priority 2005, dated 2014)
